Measured values: patent US20050042239A1, “Process for preparing biocide formulations” (priority 2003, published 2005)

How the values were obtained:
algae = experiment: Dosing of micro-mixed emulsion to cooling tower water: control of algae; conditions: 3 ppm isothiazolone in cooling water of cooling tower
Method: A 50 wt. % solution of 4,5-dichloro-2-octyl-3-isothiazolone in benzyl alcohol is fed to an array of slit shaped interdigital micro-mixers at a feed rate of 50 mL/minute, combined with water fed to the micro-mixer at a feed rate of 600 mL/minute. The water contains no surfactants. The resulting emulsion exiting the micro-mixer it is directly dosed to cooling water in a 50,000 gallon […] cooling tower, where is effectively distributed and re-circulated throughout the cooling water. After about 20 minutes, the isothiazolone concentration in the cooling water reaches a desired concentration of 3 ppm and the emulsion feed is stopped. […] Focusing micro-mixers also produce similar results as compared to the micro-mixers described above. Melted 2-octyl-3-isothiazolone as a neat liquid is fed to an array of slit shaped interdigital micro-mixers at a feed rate of 50 mL/minute, combined with water fed to the micro-mixer at a feed rate of 600 mL/minute. The water contains no surfactants and solvents. The resulting emulsion exiting the micro-mixer it is directly dosed to cooling water in a 50,000 gallon […] cooling tower, where is effectively distributed and re-circulated throughout the cooling water. After about 20 minutes, the isothiazolone concentration in the cooling water reaches a desired concentration of 3 ppm and the emulsion feed is stopped. […]

mold = experiment: Dosing of micro-mixed emulsion to paper pulp slurry tank: mold proofing of paper; conditions: surfactant-free emulsion from 50 wt. % solution in benzyl alcohol (56 mL/minute) micro-mixed with water, charged to 10,000 liter pulp slurry tank
Method: A 10,000 liter pulp slurry tank has a continuous throughput averaging 6,600 liters/minute. A 50 wt. % solution of 4,5-dichloro-2-octyl-3-isothiazolone in benzyl alcohol is fed to an array of slit shaped interdigital micro-mixers at a feed rate of 56 mL/minute, combined with water fed to the micro-mixer at a feed rate of 600 mL/minute. The water contains no surfactants. The resulting emulsion exiting the micro-mixer is directly charged to water in the pulp slurry tank, where it is effectively distributed and re-circulated throughout the tank water. […] Focusing micro-mixers also produce similar results as compared to the micro-mixers described above.

CCCCCCCCn1sccc1=O [2-octyl-3-isothiazolone]
control of algae in cooling water (algae; surfactant- and solvent-free emulsion from melted neat liquid micro-mixed with water): Effective control of algae

CCCCCCCCn1sc(Cl)c(Cl)c1=O [4,5-dichloro-2-octyl-3-isothiazolone]
control of algae in cooling water (algae; surfactant-free emulsion from 50 wt. % solution in benzyl alcohol micro-mixed with water): Effective control of algae | mold proofing in paper prepared from treated pulp (mold): effective mold proofing
